{"source": "patent US5892113A", "about": "“Hydroxyethyl aminimides” (priority 1997, dated 1999)", "molecular_target": "T1, HIV-1 protease (HIV-1 M:B_ARV2/SF2, UniProt P03369, C557X/C585X)", "T1 construct": "aminobutyric acid at 67 and 95, thioester at 51-52; NovaBiochem kit", "assay": "Fluorometric HIV-1 protease inhibition assay (NovaBiochem kit, fluorogenic substrate)", "type": "biochemical", "method": "The inhibition constant (Ki) of compound Ia is determined using HIV-1 protease kit supplied by NovaBiochem (cat. #10-39-0001, which supplies a solid phase synthesized analog of the protease, incorporating the unnatural residue aminobutyric acid in place of both cysteine residues 67 and 95, along with a thioester linkage in place of the normal peptide bond between residues 51-52). A fluorometric assay is performed using a fluorogenic substrate supplied by NovaBiochem (cat. #05-23-5216, Abz-Thr-Ile-Nle-Phe(NO2)-Gln-Arg-NH2). Initial rates of substrate hydrolysis are determined by following the increase in the fluorescence emission at 420 nm (excitation is at 325 nm) as the substrate is digested by the protease. The initial rates of substrate cleavage is determined in the absence and presence of compound Ia (up to a concentration of Ia=500 nM)."}
{"smiles": "CC(C)(C)OC(=O)N[C@@H](Cc1ccccc1)[C@@H](O)C[N+](C)(Cc1ccccc1)[N-]C(=O)c1ccccc1", "note": "(single isomer, unassigned) [Ia]", "values": [{"measurement": "mode of inhibition (Lineweaver-Burk analysis)", "setting": "initial rates of substrate cleavage in absence and presence of Ia (up to 500 nM)", "value": "classical competitive inhibition"}, {"measurement": "Ki", "setting": "read-out: inhibition constant (Ki), synthetic HIV-1 protease analog (NovaBiochem), substrate Abz-Thr-Ile-Nle-Phe(NO2)-Gln-Arg-NH2, replot of Lineweaver-Burk slopes, Ia up to 500 nM", "value": 137, "unit": "nM"}]}
